Laboratory results: patent US20240025883A1, “PYRIMIDIN-2-YL SULFONAMIDE DERIVATIVES” (Hoffmann-La Roche Inc., priority 2021, published 2024)

Each compound was assayed against human GPR17 short isoform (Homo sapiens (Human), UniProt Q13304) (assay: GPR17 cAMP assay (hGPR17 cAMP, antagonist mode against EC80 of MDL29,951)). Settings: CHO-K1 cells stably expressing human GPR17 short isoform; EC80 of agonist MDL29,951; forskolin 15 μM.
Type: cell-based
Summary of the method: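 CHO-K1 cells stably expressing untagged human GPR17 short isoform, 10,000/well in HBSS/10 mM HEPES/0.1% BSA pH 7.4. Compounds added with EC80 MDL29,951 and 0.5 mM IBMX, then 15 μM forskolin 5 min later, 30 min at room temperature; cAMP by TR-FRET, normalized to reference antagonist, sigmoidal fit.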

human GPR17 short isoform, sequence (Q13304 29-367): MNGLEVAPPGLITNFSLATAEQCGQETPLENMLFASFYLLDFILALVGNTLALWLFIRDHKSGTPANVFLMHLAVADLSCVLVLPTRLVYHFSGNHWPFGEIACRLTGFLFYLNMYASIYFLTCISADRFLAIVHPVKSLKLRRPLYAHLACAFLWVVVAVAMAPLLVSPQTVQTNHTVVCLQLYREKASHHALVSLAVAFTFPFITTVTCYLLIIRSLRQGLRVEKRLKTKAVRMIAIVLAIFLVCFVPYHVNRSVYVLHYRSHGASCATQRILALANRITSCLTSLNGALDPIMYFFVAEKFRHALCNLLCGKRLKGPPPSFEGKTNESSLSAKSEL

| SMILES | IC50 |
| --- | --- |
| COc1nc(NS(=O)(=O)c2csc3nc(C(F)F)ccc23)ncc1OCCF [Example 165, 6-(difluoromethyl)-N-[5-(2-fluoroethoxy)-4-methoxy-pyrimidin-2-yl]thieno[2,3-b]pyridine-3-sulfonamide] | 1110 nM |
| COc1nc(NS(=O)(=O)c2csc3nc(C(F)F)ccc23)ncc1CC(F)F [Example 166, N-[5-(2,2-difluoroethyl)-4-methoxy-pyrimidin-2-yl]-6-(difluoromethyl)thieno[2,3-b]pyridine-3-sulfonamide] | 1160 nM |
| COc1nc(NS(=O)(=O)c2csc3nc(C(F)F)ccc23)nc(OC)c1CC(F)F [Example 167, N-[5-(2,2-difluoroethyl)-4,6-dimethoxy-pyrimidin-2-yl]-6-(difluoromethyl)thieno[2,3-b]pyridine-3-sulfonamide] | 259 nM |
| COc1nc(NS(=O)(=O)c2c[nH]c3c2ccc2cccnc23)nc(OC)c1OCC(F)F [Example 168, N-[5-(2,2-difluoroethoxy)-4,6-dimethoxy-pyrimidin-2-yl]-1H-pyrrolo[3,2-h]quinoline-3-sulfonamide] | 26 nM |
| COc1nc(NS(=O)(=O)c2c[nH]c3c2ccc2cccnc23)nc(OC)c1CC(F)F [Example 169, N-[5-(2,2-difluoroethyl)-4,6-dimethoxy-pyrimidin-2-yl]-1H-pyrrolo[3,2-h]quinoline-3-sulfonamide] | 20 nM |
| COc1nc(NS(=O)(=O)c2c[nH]c3nc(Cl)ccc23)ncc1OCC(F)F [Example 170, 6-chloro-N-[5-(2,2-difluoroethoxy)-4-methoxy-pyrimidin-2-yl]-1H-pyrrolo[2,3-b]pyridine-3-sulfonamide] | 162 nM |
| COc1nc(NS(=O)(=O)c2c[nH]c3nc(Cl)ccc23)nc(OC)c1OC(F)(F)CF [Example 171, 6-chloro-N-[4,6-dimethoxy-5-(1,1,2-trifluoroethoxy)pyrimidin-2-yl]-1H-pyrrolo[2,3-b]pyridine-3-sulfonamide] | 89 nM |
| COc1nc(NS(=O)(=O)c2c[nH]c3nc(Br)ccc23)nc(OC)c1OC(F)F [Example 172, 6-bromo-N-[5-(difluoromethoxy)-4,6-dimethoxy-pyrimidin-2-yl]-1h-pyrrolo[2,3-b]pyridine-3-sulfonamide] | 15 nM |
| COc1cnc(NS(=O)(=O)c2c[nH]c3cc(Cl)ccc23)nc1Cl [Example 173, 6-chloro-N-(4-chloro-5-methoxy-pyrimidin-2-yl)-1H-indole-3-sulfonamide] | 877 nM |
| COc1nc(NS(=O)(=O)c2c[nH]c3cc(Cl)ccc23)ncc1OCCCF [Example 174, 6-chloro-N-[5-(3-fluoropropoxy)-4-methoxy-pyrimidin-2-yl]-1H-indole-3-sulfonamide] | 484 nM |
| CC#CCOc1cnc(NS(=O)(=O)c2c[nH]c3cc(Cl)ccc23)nc1OC [Example 175, N-(5-but-2-ynoxy-4-methoxy-pyrimidin-2-yl)-6-chloro-1H-indole-3-sulfonamide] | 73 nM |
| COc1nc(NS(=O)(=O)c2c[nH]c3cc(Cl)ccc23)ncc1CC(F)CF (stereo not shown) [Example 176, 6-chloro-N-[5-(2,3-difluoropropyl)-4-methoxy-pyrimidin-2-yl]-1H-indole-3-sulfonamide] | 47 nM |
| COc1nc(NS(=O)(=O)c2c[nH]c3cc(Cl)ccc23)ncc1CC(F)(F)F [Example 177, 6-chloro-N-[4-methoxy-5-(2,2,2-trifluoroethyl)pyrimidin-2-yl]-1H-indole-3-sulfonamide] | 162 nM |
| COc1nc(NS(=O)(=O)c2c[nH]c3cc(Cl)ccc23)ncc1CCC(F)(F)F [Example 178, 6-chloro-N-[4-methoxy-5-(3,3,3-trifluoropropyl)pyrimidin-2-yl]-1H-indole-3-sulfonamide] | 108 nM |
| COc1nc(NS(=O)(=O)c2c[nH]c3cc(Cl)ccc23)ncc1C#CC1COC1 [Example 180, 6-chloro-N-[4-methoxy-5-[2-(oxetan-3-yl)ethynyl]pyrimidin-2-yl]-1H-indole-3-sulfonamide] | 305 nM |
| COc1nc(NS(=O)(=O)c2c[nH]c3cc(Cl)ccc23)ncc1CCC1COC1 [Example 181, 6-chloro-N-[4-methoxy-5-[2-(oxetan-3-yl)ethyl]pyrimidin-2-yl]-1H-indole-3-sulfonamide] | 16800 nM |
| COc1nc(NS(=O)(=O)c2c[nH]c3cc(C)ccc23)ncc1CC(F)F [Example 182, N-[5-(2,2-difluoroethyl)-4-methoxy-pyrimidin-2-yl]-6-methyl-1H-indole-3-sulfonamide] | 101 nM |
| COc1nc(NS(=O)(=O)c2c[nH]c3c(Br)c(Cl)ccc23)ncc1CCC(F)F [Example 183, 7-bromo-6-chloro-N-[5-(3,3-difluoropropyl)-4-methoxy-pyrimidin-2-yl]-1H-indole-3-sulfonamide] | 23 nM |
| COc1nc(NS(=O)(=O)c2c[nH]c3c(C)c(Br)ccc23)ncc1CC(F)F [Example 184, 6-bromo-N-[5-(2,2-difluoroethyl)-4-methoxy-pyrimidin-2-yl]-7-methyl-1H-indole-3-sulfonamide] | 29 nM |

| SMILES | IC50 |
| --- | --- |
| COc1nc(NS(=O)(=O)c2c[nH]c3cc(Cl)c(F)cc23)ncc1CC(F)F [Example 185, 6-chloro-N-[5-(2,2-difluoroethyl)-4-methoxy-pyrimidin-2-yl]-5-fluoro-1H-indole-3-sulfonamide] | 89 nM |
| COc1nc(NS(=O)(=O)c2c[nH]c3c(OC)c(Cl)ccc23)ncc1CC(F)F [Example 186, 6-chloro-N-[5-(2,2-difluoroethyl)-4-methoxy-pyrimidin-2-yl]-7-methoxy-1H-indole-3-sulfonamide] | 13 nM |
| COc1nc(NS(=O)(=O)c2c[nH]c3c(OC)c(Cl)ccc23)ncc1CCC(F)F [Example 187, 6-chloro-N-[5-(3,3-difluoropropyl)-4-methoxy-pyrimidin-2-yl]-7-methoxy-1H-indole-3-sulfonamide] | 18 nM |
| COc1nc(NS(=O)(=O)c2c[nH]c3c(OC(F)F)c(Cl)ccc23)ncc1CC(F)F [Example 188, 6-chloro-N-[5-(2,2-difluoroethyl)-4-methoxy-pyrimidin-2-yl]-7-(difluoromethoxy)-1H-indole-3-sulfonamide] | 28 nM |
| COc1nc(NS(=O)(=O)c2c[nH]c3cc(Br)ccc23)ncc1OC(F)F [Example 189, 6-bromo-N-[5-(difluoromethoxy)-4-methoxy-pyrimidin-2-yl]-1H-indole-3-sulfonamide] | 167 nM |
| COc1nc(NS(=O)(=O)c2c[nH]c3cc(C(F)(F)F)ccc23)ncc1CC(F)F [Example 190, N-[5-(2,2-difluoroethyl)-4-methoxy-pyrimidin-2-yl]-6-(trifluoromethyl)-1H-indole-3-sulfonamide] | 106 nM |
| COc1nc(NS(=O)(=O)c2c[nH]c3c(F)c(Br)ccc23)ncc1CC(F)F [Example 191, 6-bromo-N-[5-(2,2-difluoroethyl)-4-methoxy-pyrimidin-2-yl]-7-fluoro-1H-indole-3-sulfonamide] | 33 nM |
| COc1nc(NS(=O)(=O)c2c[nH]c3c(C)c(Cl)ccc23)ncc1CC(F)F [Example 192, 6-chloro-N-[5-(2,2-difluoroethyl)-4-methoxy-pyrimidin-2-yl]-7-methyl-1H-indole-3-sulfonamide] | 20 nM |
| COc1nc(NS(=O)(=O)c2c[nH]c3nc(C(F)F)ccc23)nc(OC)c1CC(F)F [Example 194, N-[5-(2,2-difluoroethyl)-4,6-dimethoxy-pyrimidin-2-yl]-6-(difluoromethyl)-1H-pyrrolo[2,3-b]pyridine-3-sulfonamide] | 25 nM |
| COc1nc(NS(=O)(=O)c2c[nH]c3cc(C(F)F)ccc23)ncc1CC(F)F [Example 195, N-[5-(2,2-difluoroethyl)-4-methoxy-pyrimidin-2-yl]-6-(difluoromethyl)-1H-indole-3-sulfonamide] | 54 nM |
| COc1nc(NS(=O)(=O)c2c[nH]c3c(OC)c(Br)ccc23)ncc1CC(F)F [Example 196, 6-bromo-N-[5-(2,2-difluoroethyl)-4-methoxy-pyrimidin-2-yl]-7-methoxy-1H-indole-3-sulfonamide] | 16 nM |
| COc1nc(NS(=O)(=O)c2c[nH]c3cc(CC#N)ccc23)ncc1CC(F)F [Example 197, 6-(cyanomethyl)-N-[5-(2,2-difluoroethyl)-4-methoxy-pyrimidin-2-yl]-1H-indole-3-sulfonamide] | 981 nM |
| COc1nc(NS(=O)(=O)c2c[nH]c3c(OCF)c(Cl)ccc23)ncc1CC(F)F [Example 198, 6-chloro-N-[5-(2,2-difluoroethyl)-4-methoxy-pyrimidin-2-yl]-7-(fluoromethoxy)-1H-indole-3-sulfonamide] | 36 nM |
| COc1nc(NS(=O)(=O)c2c[nH]c3c(SC(F)F)c(Cl)ccc23)ncc1CC(F)F [Example 199, 6-chloro-N-[5-(2,2-difluoroethyl)-4-methoxy-pyrimidin-2-yl]-7-(difluoromethylsulfanyl)-1H-indole-3-sulfonamide] | 8 nM |
| COc1nc(NS(=O)(=O)c2c[nH]c3nc(Br)ccc23)ncc1CC(F)F [Example 200, 6-bromo-N-[5-(2,2-difluoroethyl)-4-methoxy-pyrimidin-2-yl]-1H-pyrrolo[2,3-b]pyridine-3-sulfonamide] | 66 nM |
| COc1nc(NS(=O)(=O)c2c[nH]c3nc(Br)ccc23)ncc1CCC(F)F [Example 201, 6-bromo-N-[5-(3,3-difluoropropyl)-4-methoxy-pyrimidin-2-yl]-1H-pyrrolo[2,3-b]pyridine-3-sulfonamide] | 30 nM |
| COc1nc(NS(=O)(=O)c2c[nH]c3nc(Br)ccc23)nc(OC)c1OCC(F)F [Example 202, 6-bromo-N-[5-(2,2-difluoroethoxy)-4,6-dimethoxy-pyrimidin-2-yl]-1H-pyrrolo[2,3-b]pyridine-3-sulfonamide] | 28 nM |
| COc1nc(NS(=O)(=O)c2c[nH]c3nc(Cl)ccc23)ncc1CC(F)F [Example 203, 6-chloro-N-[5-(2,2-difluoroethyl)-4-methoxy-pyrimidin-2-yl]-1H-pyrrolo[2,3-b]pyridine-3-sulfonamide] | 127 nM |
